We go through one compound from patent US8207188B2, “Treatment of diseases modulated by a H4 receptor agonist” (priority 2006, dated 2012).

“Also recorded” adds a separate entry of the source.

Experiment [1] relates to hematopoietic progenitor cells. Briefly: CFU of hematopoietic progenitor cells in the presence of Ara-C. It is filed as cell-based. The note with it: listed as TRQ. An excerpt:
Ara-C is a chemotherapeutic agent that kills cancel cells (or actively dividing cells).

In another experiment the target is T1, recombinant human HDC (Homo sapiens, UniProt P19113).
T1 construct: The DNA encoding for residues 1-512 of human HDC; GST (fusion partner of the pGEX-6P-1 vector) (N, cleaved yes); made in house; host or cells: Escherichia coli BL21(DE3)pLysS
T1 sequence (P19113 1-512): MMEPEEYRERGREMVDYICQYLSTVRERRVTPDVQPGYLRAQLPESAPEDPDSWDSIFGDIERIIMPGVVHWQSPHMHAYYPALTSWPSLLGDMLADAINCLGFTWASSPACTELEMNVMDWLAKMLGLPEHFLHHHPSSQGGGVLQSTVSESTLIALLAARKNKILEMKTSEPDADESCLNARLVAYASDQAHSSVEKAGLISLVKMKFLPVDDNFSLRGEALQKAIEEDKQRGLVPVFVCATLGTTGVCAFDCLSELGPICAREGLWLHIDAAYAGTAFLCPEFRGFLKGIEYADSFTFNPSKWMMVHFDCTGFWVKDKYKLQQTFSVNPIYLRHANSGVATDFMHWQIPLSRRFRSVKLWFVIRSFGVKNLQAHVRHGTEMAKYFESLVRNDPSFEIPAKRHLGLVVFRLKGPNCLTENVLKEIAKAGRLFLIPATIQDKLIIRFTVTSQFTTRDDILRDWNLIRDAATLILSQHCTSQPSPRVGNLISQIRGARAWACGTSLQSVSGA
The experiment in a line: Human-HDC activity determination (14CO2 from L-[U-14C]histidine). It counts as biochemical. The note with it: 10 μM final. An excerpt: The DNA encoding for residues 1-512 of human HDC was subcloned in the pGEX-6P-1 vector (GE-Healthcare). The recombinant plasmid transformed into the Escherichia coli BL21(DE3)pLysS strain. Transformed cultures were induced to express the HDC 1/512, which was purified by affinity chromatography using Glutathione sepharose (GE-Healthcare). 1/512 HDC was released from the fusion protein bound to the affinity chromatography support by digestion with the Pre-Scission™ protease (GE-Healthcare). The final preparations were dissolved in 50 mM potassium phosphate, 0.1 mM PLP, pH 7.0. Purity of the HDC 1/512 construct was checked by Coomassie blue staining and Western blotting, and was higher than 95% in the final preparations.
HDC activity was assayed, as described in Engel at al. (1996) Biochem J. 320: 365-368, by measuring the production of ^14CO2 from L-[U-^14C]histidine (GE-Healthcare) in a mixture containing 0.2 mM dithiothreitol, 10 μM PLP, 10 mg/ml poly(ethylene glycol)-300, 100 mM potassium phosphate, pH 6.8, and purified protein in a total volume of 100 μL. When recombinant HDC was used, the concentration of L[U-^14C]histidine was 13.3 μM (with ⅓ isotopic dilution). The released ^14CO2 was measured as previously described for HDC activity determinations (Urdiales et al. (1992) FEBS Lett. 305, 260-264).
10 μM concentration of each isomer, A and B (A corresponds to the isolated pure isomer eluting at 5.9 minutes, B corresponds to the isolated pure isomer eluting at 7.1 minutes of the chromatogram shown in FIG. 4 (bottom)) and their corresponding racemic mixture (starting material prior to separating the individual isomers, indicated as A+B) along with 4 μg of recombinant human HDC were used to asses the inhibitory effect of each isomer and the mixture on the enzymatic conversion of histidine to histamine. Results are presented as means of duplicates samples.

Consider `CCOc1c(N)c2c(c(OCC)c1OCC)C(C1c3c(cc4c(c3OC)OCO4)CCN1C)OC2=O` (racemic) [Tritoqualine, 7-Amino-4,5,6-triethoxy-3-(5,6,7,8-tetrahydro-4-methoxy-6-methyl-1,3-dioxolo[4,5-g]isoquinolin-5-yl) phthalide], for which the “protection of cells / cell CFU in the presence of Ara-C” value in experiment [1] was “provides protection to the cells; also recorded: cell CFU remains high”. The inhibition (in general, how much of the control response was suppressed) at 10 µM on recombinant human HDC is 17.5%. Moreover, the DPM on recombinant human HDC (4 μg recombinant human HDC, means of duplicates, control 12340) is on record as 10176 DPM. Also, on recombinant human HDC (control 0.35), the Activity was 0.29 µmol/h. Besides, the Specific activity on recombinant human HDC (control 87.00) is listed as 71.74 μmole/h · mg prot. In addition, the remaining activity at 10 µM at recombinant human HDC (read-out: % of control) was found to be 82.5%.
